In article PMC9367672, “In vitro differences in toddalolactone metabolism in various species and its effect on cytochrome P450 expression” (Pharmaceutical Biology, 2022):
Read-outs that look alike come from different tables or passages of the source.

Experiments:
[1] = Metabolic stability assessment in rat liver microsomes; format: in vitro ADME; settings: pH 7.4, RLMs, toddalolactone 20 μM, 0-90 min
Procedure: The CYP reaction system (200 μL) consisted of 0.1 M potassium phosphate buffer (pH 7.4), an NADPH-generating system (1 mM NADPH, 10 mM G-6-P, 1 unit/mL G-6-PD, 4 mM MgCl2), and liver microsomes or recombinant human microsomes (supersomes). Each of the in vitro enzymatic assays using liver microsomes was linear with respect to incubation time and amount of protein. After a pre-incubation at 37 °C for 3 min, the reactions were initiated by adding NADP^+. After incubating for 60 min, the reactions were quenched by adding 200 μL of ice-cold acetonitrile. Samples were centrifuged at 18,000 g for 15 min at 4 °C and 10 μL of supernatant was analyzed using an HPLC system. […]
In the UGT reaction system, liver microsomes were incubated in 200 μL of the reaction system containing 4 mM UDPGA, 5 mM MgCl2, 20 µg/mL alamethicin, and 50 mM Tris-HCl buffer (pH 7.4). […] After centrifugation at 18,000 g for 15 min, 10 μL of the supernatant was analyzed by HPLC.
Toddalolactone (20 μM) was incubated with different liver microsomes, including HLMs, DLMs, PLMs, MLMs, RAMs, RLMs or MIMs in oxidative metabolism and glucuronidation reaction systems. […] The mixtures were centrifuged at 18,000 g for 15 min at 4 °C and then 10 μL of the supernatant was analyzed by HPLC. […]
The peak areas of toddalolactone and its metabolites were detected using a HPLC system (Shimadzu, Kyoto, Japan). […]

[2] = Pharmacokinetics study in rats after intravenous administration; format: in vivo; settings: male, Sprague-Dawley, rat, intravenous 10 mg/kg, plasma
Procedure: Six male Sprague–Dawley rats weighing 200 ± 10 g were obtained from the Laboratory Animal Center of Jinzhou Medical University. Approval of the study protocols was obtained from the Institutional Animal Ethics Committee before the commencement of the studies. Toddalolactone was administered intravenously into the tail vein at a dose of 10 mg/kg, and 0.5 mL of blood was collected through orbital venous plexus at 0, 0.25, 0.5, 0.75, 1, 2, 4, 6 and 8 h after toddalolactone administration and centrifuged at 2000 g for 5 min at 4 °C to obtain the plasma samples. The plasma (0.1 mL) was mixed with 200 μL acetonitrile, the mixture was vortexed for 30 s and then centrifuged at 20,000 g for 20 min and the supernatant was collected and analyzed by HPLC.
After intravenous administration of toddalolactone, blood samples were collected and the concentration of toddalolactone in plasma was determined. The mean plasma concentrations of toddalolactone versus time profiles are depicted in Figure 13. The pharmacokinetic (PK) parameters such as AUC0–t, t1/2, Tmax and Cmax were calculated by a noncompartmental method using the DAS 3.1 software package (Jiangxi University of Traditional Chinese Medicine, Nanchang, China).

MIMs = experiment: Enzyme kinetics of toddalolactone metabolism in mouse liver microsomes (oxidative metabolism); format: in vitro ADME; settings: MOMs (mouse liver microsomes), P450-catalyzed oxidation, P2 formation
Procedure: The CYP reaction system (200 μL) consisted of 0.1 M potassium phosphate buffer (pH 7.4), an NADPH-generating system (1 mM NADPH, 10 mM G-6-P, 1 unit/mL G-6-PD, 4 mM MgCl2), and liver microsomes or recombinant human microsomes (supersomes). Each of the in vitro enzymatic assays using liver microsomes was linear with respect to incubation time and amount of protein. After a pre-incubation at 37 °C for 3 min, the reactions were initiated by adding NADP^+. After incubating for 60 min, the reactions were quenched by adding 200 μL of ice-cold acetonitrile. Samples were centrifuged at 18,000 g for 15 min at 4 °C and 10 μL of supernatant was analyzed using an HPLC system. NADPH or CYP enzyme sources were not used in the control group to ensure that the metabolic reactions were CYP- and NADPH-dependent. All incubation assays were completed in triplicate. The data are presented as mean ± standard deviation (SD).
The enzyme kinetics of toddalolactone in oxidative metabolism and glucuronidation were determined by incubating liver microsomes (0.2 mg/mL) or CYPs (15 nM) with different concentrations of toddalolactone (1–200 μM). […] The in vitro intrinsic clearance (CLint) was calculated based on the Vmax/Km ratio. Metabolites were quantified using the standard curve for toddalolactone because of the absence of metabolite standards. […]
The enzyme kinetics in oxidative metabolism and glucuronidation of toddalolactone were studied, and preliminary experiments were performed to ensure that metabolites were formed in the linear range of both reaction time and microsomal protein concentration. […] Based on the results of toddalolactone metabolism in different species, the kinetic parameter values in RLMs, DLMs, MLMs, HLMs, RAMs, MIMs, PLMs, CYP1A1 and CYP3A5 were calculated using P4, P4, P4, P4, P2, P2, P4, P4 and P4 data in oxidative metabolism, respectively. In the glucuronidation reaction, the kinetic parameter values in RLMs, MLMs, HLMs, RAMs and PLMs were calculated using P5, P6, P6, P6 and P5 data, respectively.

SMILES: COc1cc2oc(=O)ccc2c(OC)c1C[C@@H](O)C(C)(C)O [toddalolactone]
- half-life at 20 μM ([1]; CYP incubation system, read-out: half-life value (T1/2)): 6.37 ± 0.283 h
- half-life at 20 μM ([1]; UGT incubation system, read-out: T1/2 value): 2.15 ± 0.197 h
- Tmax [2]: 0.25 h
- AUC(0-t) ([2]; 0–8 h): 0.46 µg·h/mL
- Cmax ([2]; mean of six): 0.42 µg/mL
- half-life ([2]; read-out: elimination t1/2 (converted)): 1.05 h
- K m (MIMs): 146.32 ± 26.62 µM
- V max (MIMs; toddalolactone 1–200 μM): 235.91 ± 22.75 pmol/min/mg protein
